Measured values from ChEMBL document CHEMBL1128068, “Inhibitors of human collagenase: dipeptide mimetics with lactam and azalactam moieties at the position” (Bioorg Med Chem Lett, 1995).

Target: T1, Interstitial collagenase (Homo sapiens, UniProt P03956)
T1 sequence (P03956 whole entry): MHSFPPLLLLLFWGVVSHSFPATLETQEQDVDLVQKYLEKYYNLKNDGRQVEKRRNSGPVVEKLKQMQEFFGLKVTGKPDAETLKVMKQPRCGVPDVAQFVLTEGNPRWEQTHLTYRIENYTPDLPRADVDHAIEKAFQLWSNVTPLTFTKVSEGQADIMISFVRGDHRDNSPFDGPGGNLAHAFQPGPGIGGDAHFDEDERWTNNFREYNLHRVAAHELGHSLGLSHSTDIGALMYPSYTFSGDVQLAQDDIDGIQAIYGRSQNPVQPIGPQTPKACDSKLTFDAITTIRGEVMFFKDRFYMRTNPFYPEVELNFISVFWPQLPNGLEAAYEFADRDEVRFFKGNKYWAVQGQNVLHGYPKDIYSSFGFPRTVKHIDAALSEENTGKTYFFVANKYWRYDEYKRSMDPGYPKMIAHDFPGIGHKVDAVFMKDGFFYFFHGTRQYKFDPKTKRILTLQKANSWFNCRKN
Experiment: Inhibition of semi-purified human lung fibroblast collagenase

SMILES: CC[C@H](N[C@@H](CC(C)C)C(=O)NC1CCCCNCCCCCNC1=O)P(=O)(O)O (stereo partly specified)
- IC50: 0.46 µM

SMILES: CC[C@H](N[C@@H](CC(C)C)C(=O)NC1CCCNCCCCCCNC1=O)P(=O)(O)O (stereo partly specified)
- IC50: 0.227 µM

SMILES: CC[C@H](N[C@@H](CC(C)C)C(=O)NC1CCCCNCCCCCCNC1=O)P(=O)(O)O (stereo partly specified)
- IC50: 0.307 µM

SMILES: CC[C@H](N[C@@H](CC(C)C)C(=O)NC1CCCCNCCCNC1=O)P(=O)(O)O (stereo partly specified)
- IC50: 2.23 µM

SMILES: CC[C@H](N[C@@H](CC(C)C)C(=O)NC1CCCCN(C)CCCCCNC1=O)P(=O)(O)O (stereo partly specified)
- IC50: 0.51 µM

SMILES: CC(C)CC(CC(=O)NO)C(=O)NC1CCCCCCCCCCNC1=O (stereo unspecified)
- IC50: 0.026 µM

SMILES: CC(C)C[C@@H](C(=O)NC1CCCCCCCCCCNC1=O)[C@@H](S)CC(=O)OC(C)C (stereo partly specified)
- IC50: 0.051 µM

SMILES: CC(C)CC(C(=O)NC1CCCCNCCCCCNC1=O)[C@@H](S)CC(=O)OC(C)C (stereo partly specified)
- IC50: 0.044 µM

SMILES: CCC(N[C@@H](CC(C)C)C(=O)NC1CCCCCCCCCCNC1=O)P(=O)(O)O (stereo partly specified)
- IC50: 0.183 µM

SMILES: CC(C)CC(CC(=O)NO)C(=O)N[C@H]1CCCCNCCCCCNC1=O (stereo in doubt; 17a)
- IC50: 0.012 µM

SMILES: CC(C)CC(CC(=O)NO)C(=O)N[C@H]1CCCCNCCCCCNC1=O (stereo in doubt; 17b)
- IC50: 0.082 µM
